The record followed here is patent US10821115B2, “Compounds that inhibit Mcl-1 protein” (priority 2017, dated 2020).

Molecules are shown by their SMILES. Read-outs that look alike come from different tables or passages of the source.

Assay [1] concerns the target recombinant human Mcl-1 (residues 171-327) / Bim interaction (Homo sapiens (Human), UniProt Q07820). The assay is described as follows: biochemical. Type of assay: binding. Conditions: read-out: Mcl-1 HTRF IC50. (In general: TR-FRET usually uses a lanthanide donor and a delayed reading to cut background.)
Assay [2] concerns human multiple myeloma cell line, OPM-2. Briefly: Cell viability assay (OPM-2 10 FBS), CellTiter-Glo. It counts as cell-based. In outline: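 OPM-2 cells at 3000 cells/well in RPMI 1640 with 10% FBS were exposed to serially diluted compounds for 16 h at 37 °C, 5% CO2.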
Background: Cellular ATP, detected with luciferase, serves as a proxy for viable cell number.

Setting [3] is: 0.1 nM Mcl-1(171-327), 0.05 nM biotin-Bim (51-76).
The mark [4] stands for this setting: Homo sapiens, OPM-2, 16 h, read-out: OPM-2 10% FBS IC50 IP, OPM-2 cells, 10% FBS, 16 h incubation.
[5] abbreviates: TR-FRET, Mcl-1(171-327) / biotin-Bim (51-76).
[6] abbreviates: read-out: OPM-2 10% FBS IC50 IP, OPM-2 cells, 10% FBS, 16 h, CellTiter-Glo.
The mark [7] stands for this setting: Homo sapiens, OPM-2, 16 h, read-out: OPM-2 10% FBS IC50 IP, OPM-2 cells, 10% FBS, 16 h, CellTiter-Glo.

recombinant human Mcl-1 (residues 171-327) / Bim interaction, sequence (Q07820 171-327): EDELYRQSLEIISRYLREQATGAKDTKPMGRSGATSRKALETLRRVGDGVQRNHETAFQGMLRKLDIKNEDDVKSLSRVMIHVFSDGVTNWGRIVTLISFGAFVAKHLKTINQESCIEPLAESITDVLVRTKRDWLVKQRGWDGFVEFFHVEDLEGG

Broadly, the IC50 is the point on the concentration scale where inhibition reaches its midpoint. For `COCCO[C@]1(CN2CCN3CCCC[C@@H]3C2)/C=C/C[C@H](C)[C@@H](C)S(=O)(=O)NC(=O)c2ccc3c(c2)N(C[C@@H]2CC[C@H]21)C[C@@]1(CCCc2cc(Cl)ccc21)CO3` [Example 152, (1S,3′R,6′R,7′R,8′E,11′S,12′R)-6-chloro-7′-(2-methoxyethoxy)-11′,12′-dimethyl-7′-((9aR)-octahydro-2H-pyrido[1,2-a]pyrazin-2-ylmethyl)-3,4-dihydro-2H,15′H-spiro[naphthalene-1,22′-[20]oxa[13]thia[1,14]diazatetracyclo [14.7.2.0~3,6~.0~19,24~]pentacosa[8,16,18,24]tetraen]-15′-one 13′,13′-dioxide], the values for the IC50 in assay [1] (setting [3]) and in assay [2] (setting [4]) were 0.092 nM and 110 nM, respectively.

Consider `C[C@@H]1[C@@H](C)C/C=C/[C@@](O)(Cc2ccncn2)[C@@H]2CC[C@H]2CN2C[C@@]3(CCCc4cc(Cl)ccc43)COc3ccc(cc32)C(=O)NS1(=O)=O` [Example 100152, (1S,3′R,6′R,7′S,8′E,11′S,12′R)-6-chloro-7′-hydroxy-11′,12′-dimethyl-7′-(4-pyrimidinylmethyl)-3,4-dihydro-2H,15′H-spiro[naphthalene-1,22′-[20]oxa[13]thia[1,14]diazatetracyclo [14.7.2.0~3,6~.0~19,24~]pentacosa[8,16,18,24]tetraen]-15′-one 13′,13′-dioxide], for which the figures for the IC50 in assay [1] (setting [5]) and in assay [2] (setting [6]) were 0.449 nM and 377 nM, respectively.

In the case of `C[C@@H]1[C@@H](C)CCC[C@@](O)(Cc2ccccn2)[C@@H]2CC[C@H]2CN2C[C@@]3(CCCc4cc(Cl)ccc43)COc3ccc(cc32)C(=O)NS1(=O)=O` [Example 100105, (1S,3′R,6′R,7′R,11′S,12′R)-6-chloro-7′-hydroxy-11′,12′-dimethyl-7′-(2-pyridinylmethyl)-3,4-dihydro-2H,15′H-spiro[naphthalene-1,22′-[20]oxa[13]thia[1,14]diazatetracyclo [14.7.2.0~3,6~.0~19,24~]pentacosa[16,18,24]trien]-15′-one 13′,13′-dioxide], the 50% inhibitory concentration (IC50) stood at 5.93 nM in assay [1] (setting [5]) and 3660 nM in assay [2] (setting [6]).

As for `CO[C@]1(CN2CCN(Cc3cscn3)CC2)/C=C/C[C@H](C)[C@@H](C)S(=O)(=O)NC(=O)c2ccc3c(c2)N(C[C@@H]2CC[C@H]21)C[C@@]1(CCCc2cc(Cl)ccc21)CO3` [Example 72, (1S,3′R,6′R,7′R,8′E,11′S,12′R)-6-chloro-7′-methoxy-11′,12′-dimethyl-7′-((4-(1,3-thiazol-4-ylmethyl)-1-piperazinyl)methyl)-3,4-dihydro-2H,15′H-spiro[naphthalene-1,22′-[20]oxa[13]thia[1,14]diazatetracyclo [14.7.2.0~3,6~.0~19,24~]pentacosa[8,16,18,24]tetraen]-15′-one 13′,13′-dioxide], the figures for the IC50 in assay [1] (setting [3]) and in assay [2] (setting [4]) were 0.8 nM and 185 nM, respectively.

As for `C[C@@H]1[C@@H](C)CCC[C@@](O)(CS(=O)(=O)N(C)C(C)(C)C)[C@@H]2CC[C@H]2CN2C[C@@]3(CCCc4cc(Cl)ccc43)COc3ccc(cc32)C(=O)NS1(=O)=O` [Example 100169, 1-((1S,3′R,6′R,7′S,11′S,12′R)-6-chloro-7′-hydroxy-11′,12′-dimethyl-13′,13′-dioxido-15′-oxo-3,4-dihydro-2H-spiro[naphthalene-1,22′-[20]oxa[13]thia[1,14]diazatetracyclo [14.7.2.0~3,6~.0~19,24~]pentacosa[16,18,24]trien]-7′-yl)-N-methyl-N-(2-methyl-2-propanyl)methanesulfonamide], the IC50 came to 4.83 nM in assay [1] (setting [5]) and 2270 nM in assay [2] (setting [6]).

For the molecule `CO[C@]1(CCN2CCOCC2)/C=C/C[C@H](C)[C@@H](C)S(=O)(=O)NC(=O)c2ccc3c(c2)N(C[C@@H]2CC[C@H]21)C[C@@]1(CCCc2cc(Cl)ccc21)CO3` [Example 100365, (1S,3′R,6′R,7′R,8′E,11′S,12′R)-6-chloro-7′-methoxy-11′,12′-dimethyl-7′-(2-(4-morpholinyl)ethyl)-3,4-dihydro-2H,15′H-spiro[naphthalene-1,22′-[20]oxa[13]thia[1,14]diazatetracyclo [14.7.2.0~3,6~.0~19,24~]pentacosa[8,16,18,24]tetraen]-15′-one 13′,13′-dioxide], the figures for the IC50 in assay [1] (setting [5]) and in assay [2] (setting [7]) were 0.257 nM and 245 nM, respectively.

As for `CO[C@@]1(CC(=O)N2CCCC2)/C=C/C[C@H](C)[C@@H](C)S(=O)(=O)NC(=O)c2ccc3c(c2)N(C[C@@H]2CC[C@H]21)C[C@@]1(CCCc2cc(Cl)ccc21)CO3` [Example 100010, (1 S,3′R,6′R,7′S,8′E,11′S, 12′R)-6-chloro-7′-methoxy-11′,12′-dimethyl-7′-(2-oxo-2-(1-pyrrolidinyl)ethyl)-3,4-dihydro-2H, 15′H-spiro[naphthalene-1,22′-[20]oxa[13]thia[1,14]diazatetracyclo[14.7.2.0-3,6˜.0˜19,24˜]pentacosa[8,16,18,24]tetraen]-15′-one 13′,13′-dioxide], the results for the IC50 in assay [1] (setting [5]) and in assay [2] (setting [7]) were 0.077 nM and 142 nM, respectively.

In the case of `C[C@@H]1[C@@H](C)CCC[C@@]2(CC(N(C)C)=NO2)[C@@H]2CC[C@H]2CN2C[C@@]3(CCCc4cc(Cl)ccc43)COc3ccc(cc32)C(=O)NS1(=O)=O` [Example 100197, (1S,3′R,6′R,7′R,11′S,12′R)-6-chloro-3″- (dimethylamino)-11′,12′-dimethyl-3,4-dihydro-2H,4″H,15′H-dispiro[naphthalene-1,22′-[20]oxa[13]thia[1,14]diazatetracyclo [14.7.2.0~3,6~.0~19,24~]pentacosa[16,18,24]triene-7′,5″-[1,2]oxazol]-15′-one 13′,13′-dioxide], the IC50 was 0.774 nM in assay [1] (setting [5]) and 2460 nM in assay [2] (setting [7]).

With `COc1ncccc1[C@@]1(O)/C=C/C[C@H](C)[C@@H](C)S(=O)(=O)NC(=O)c2ccc3c(c2)N(C[C@@H]2CC[C@H]21)C[C@@]1(CCCc2cc(Cl)ccc21)CO3` (single isomer, unassigned) [Example 100333], the figures for the IC50 in assay [1] (setting [5]) and in assay [2] (setting [7]) were 2.1 nM and 2170 nM, respectively.

Take `CCO[C@]1(CN2CCN3CCOC[C@@H]3C2)/C=C/C[C@H](C)[C@@H](CC2CCC2)S(=O)(=O)NC(=O)c2ccc3c(c2)N(C[C@@H]2CC[C@H]21)C[C@@]1(CCCc2cc(Cl)ccc21)CO3` [Example 45, (1S,3′R,6′R,7′R,8′E,11′S,12′R)-6-chloro-12′-(cyclobutylmethyl)-7′-ethoxy-7′-((9aS)-hexahydropyrazino[2,1-c][1,4]oxazin-8(1H)-ylmethyl)-11′-methyl-3,4-dihydro-2H,15′H-spiro[naphthalene-1,22′-[20]oxa[13]thia[1,14]diazatetracyclo [14.7.2.0~3,6~.0~19,24~]pentacosa[8,16,18,24]tetraen]-15′-one 13′,13′-dioxide]: the figures for the IC50 in assay [1] (setting [3]) and in assay [2] (setting [4]) were 0.245 nM and 891 nM, respectively.

Regarding `CO[C@]1(CC2=NC(C)(C)CO2)/C=C/C[C@H](C)[C@@H](C)S(=O)(=O)NC(=O)c2ccc3c(c2)N(C[C@@H]2CC[C@H]21)C[C@@]1(CCCc2cc(Cl)ccc21)CO3` [Example 100380, (1S,3′R,6′R,7′R,8′E,11′S,12′R)-6-chloro-7′-((4,4-dimethyl-4,5-dihydro-1,3-oxazol-2-yl)methyl)-7′-methoxy-11′,12′-dimethyl-3,4-dihydro-2H,15′H-spiro[naphthalene-1,22′-[20]oxa[13]thia[1,14]diazatetracyclo [14.7.2.0~3,6~.0~19,24~]pentacosa[8,16,18,24]tetraen]-15′-one 13′,13′-dioxide], the IC50 came to 0.208 nM in assay [1] (setting [5]) and 137 nM in assay [2] (setting [7]).

On to `C[C@@H]1[C@@H](C)C/C=C/[C@@](O)(CC(=O)N(C)CCN(C)C)[C@@H]2CC[C@H]2CN2C[C@@]3(CCCc4cc(Cl)ccc43)COc3ccc(cc32)C(=O)NS1(=O)=O` [Example 100282, 2-((1S,3′R,6′R,7′S,8′E,11′S,12′R)-6-chloro-7′-hydroxy-11′,12′-dimethyl-13′,13′-dioxido-15′-oxo-3,4-dihydro-2H-spiro[naphthalene-1,22′-[20]oxa[13]thia[1,14]diazatetracyclo [14.7.2.0~3,6~.0~19,24~]pentacosa[8,16,18,24]tetraen]-7′-yl)-N-(2-(dimethylamino)ethyl)-N-methylacetamide], for which the results for the IC50 in assay [1] (setting [5]) and in assay [2] (setting [6]) were 0.268 nM and 1280 nM, respectively.

Turning to `COCCN(C)C(=O)C[C@]1(OC)/C=C/C[C@H](C)[C@@H](C)S(=O)(=O)NC(=O)c2ccc3c(c2)N(C[C@@H]2CC[C@H]21)C[C@@]1(CCCc2cc(Cl)ccc21)CO3` [Example 100005, 2-((1 S,3′R,6′R,7′S,8′E,11′S, 12′R)-6-chloro-7′-methoxy-11′,12′-dimethyl-13′,13′-dioxido-15′-oxo-3,4-dihydro-2H-spiro[naphthalene-1,22′-[20]oxa[13]thia[1,14]diazatetracyclo[14.7.2.0-3,6˜.0˜19,24˜]pentacosa[8,16,18,24]tetraen]-7′-yl)-N-(2-methoxyethyl)-N-methylacetamide], the IC50 amounted to 0.091 nM in assay [1] (setting [5]) and 62 nM in assay [2] (setting [7]).

For the molecule `CO[C@]1(CN2CCN3CCOC[C@@H]3C2)/C=C/C[C@H](C)[C@@H](CCO)S(=O)(=O)NC(=O)c2ccc3c(c2)N(C[C@@H]2CC[C@H]21)C[C@@]1(CCCc2cc(Cl)ccc21)CO3` [Example 357, (1S,3′R,6′R,7′R,8′E,11′S,12′R)-6-chloro-7′-((9aS)-hexahydropyrazino[2,1-c][1,4]oxazin-8(1H)-ylmethyl)-12′-(2-hydroxyethyl)-7′-methoxy-11′-methyl-3 ,4-dihydro-2H,15′H-spiro[naphthalene-1,22′-[20]oxa[13]thia[1,14]diazatetracyclo [14.7.2.0~3,6~.0~19,24~]pentacosa[8,16,18,24]tetraen]-15′-one 13′,13′-dioxide], the IC50 in assay [1] (setting [3]) turned out to be 0.067 nM; in assay [2] (setting [4]) it was 118 nM.
